Results from patent US20230263751A1, “Compositions and Methods of Use of beta-hydroxy-beta-methylbutyrate (HMB) and Chemotherapy Agents” (Metabolic Technologies, LLC, priority 2020, published 2023).

Tests used:
[1] = test system: EAC cells; assay: Assessment of death type in harvested tumor cells (propidium iodide/acridine orange)
Protocol: The mice were divided into 5 groups (n=6): Normal (healthy animals), Control (saline), Doxo (1 mg/kg/day), HMB (617.3 mg calcium HMB/kg/day) and Doxo+HMB (1 mg/kg/day and 617.3 mg/kg/day, respectively). The animals belonging to the Control, Doxo, HMB and Doxo+HMB groups were inoculated with EAC cells (200 μL, 5×10^6 cells) by intraperitoneal injection and treatment of animals was started after 96 hours. The dose of HMB was defined based on the recommendation for adult men of 70 kg, that is, 3 g/day (supplementary form) [21].
Harvested tumor cells (5×10^6) were stained with 1 μL of a solution (1:1) of propidium iodide (100 μg/mL) and acridine orange (100 μg/mL). The samples were read by fluorescence microscopy on the green (excitation at 460 nm and emission at 520 nm) and red (excitation at 492 nm at emission at 620 nm) filters, and the results were expressed as percentage of viable (green), apoptotic (orange) and necrotic (red) cells [24].

[2] = test system: EAC cells; assay: Tumor growth inhibition and morphological evaluation of mice with EAC; type: in vivo, Balb/c mice (Mus musculus); conditions: 9 days treatment
Protocol: Female (18 to 23 g weight, 60 days) Balb/c mice (Mus musculus) obtained from controlled reproduction carried out in the sectoral bioterium of the Federal University of Santa Catarina (Brazil), were kept in plastic cages under controlled environmental conditions (12 h light-dark cycle, 25±2° C., relative humidity 60%), receiving commercial feed and water ad libitum.
The moment before the tumor was inoculated, the abdominal circumference was measured. The treatments were administered intraperitoneally for 9 consecutive days. Twenty-four hours after the last treatment, all mice were weighed and their abdominal circumferences measured again. The inhibition (%) of tumour growth was calculated as follow: [(average in waist circumference of the treated group×100)/average in waist circumference of the control group]−100.
(§1) In addition, after euthanasia, all ascitic fluid was collected to measure volume and weight. Finally, Balb/c mice (n=12) were chosen at random and kept alive to assess the effects of HMB, Doxo and Doxo+HMB on survival time according to Kaplan and Meier (1958); survival assessments were discontinued after 30 days.

[3] = test system: p53; assay: Western blotting of p53 in EAC cells; type: in vivo, Balb/c mice (Mus musculus); conditions: p53/actin
Protocol: (§2) Apoptotic markers were evaluated by Western blotting. EAC cells were washed with PBS and lysed in RIPA buffer supplemented with 1% protease and 3% phosphatase inhibitors. The proteins were further denatured in Laemmli buffer and equivalent amounts were subjected to SDS-PAGE electrophoresis, followed by electroblotting on PVDF membranes. The membranes were blocked and then incubated with the primary monoclonal antibodies: p53 (Santa Cruz Biotechnology, DO-1; sc-126), Bax (Santa Cruz Biotechnology, B-9; sc-7480) and BcL-xl (Santa Cruz Biotechnology, H-5; sc-8392), and subsequently incubated with peroxidase conjugated secondary antibodies (Dako and Chemicon). Immunodetection was performed using a chemiluminescence determination kit, and β-actin was used as a loading control. Images were obtained with the ChemiDoc MP (Bio Rad) system.

[4] = test system: EAC cells; assay: Survival assessment of mice with EAC (Kaplan and Meier); type: in vivo, Balb/c mice (Mus musculus); conditions: for Mean survival time: mice with EAC, n=12, observation discontinued after 30 days, Control 16 days
Source text: as §1

[5] = Cachexia assessment (food intake, weight loss, muscle and fat mass) of mice with EAC; type: in vivo, Balb/c mice (Mus musculus); conditions: 9 days; for Average daily food intake: Control 2.17±0.69, Normal 3.30±0.60; for Brown adipose tissue mass / Dry weight soleus muscle / Mesenteric fat mass / Subcutaneous fat mass / Wet weight gastrocnemius muscle / Wet weight soleus muscle: mean ± SD, n=6
Source text: To determine average daily food intake, the weight of the feed consumed was divided by the number of animals in each cage. To evaluate the percentage of weight loss, the “initial weight” (before inoculation of the EAC), “final weight” (after 9 days of treatment) and “carcass weight” (final weight−weight of ascitic liquid) were considered according to standardized equation [27].
The soleus and gastrocnemius muscles were quickly removed and weighed on an analytical balance (wet mass). Soleus samples were used to determine the dry weight after 3 days at 60° C., and the gastrocnemius was kept at −80° C. for the determination of cytokines. The wet mass of the gastrocnemius and soleus muscle (mg) was normalized by the length of the tibia (mm) of the mice. Subcutaneous fat deposits, mesentery and brown adipose tissue were also removed and immediately weighed.

[6] = test system: IL-6; assay: IL-6 in gastrocnemius muscle by ELISA; type: in vivo, Balb/c mice (Mus musculus); conditions: in relation to the Control group
Protocol: (§3) For the determination of cytokines, the gastrocnemius muscle was homogenized in a RIPA buffer supplemented with 1% protease and 3% phosphatase inhibitors, in the proportion 1 mg tissue:10 μl buffer, followed by centrifugation of the homogenate at 12,000 g and 4° C., for 10 minutes. An aliquot of the supernatant was used to determine the cytokines IL-1β and IL-6 by ELISA immunoassay using DuoSet® Kit (R&D System, USA), according to the manufacturer recommendations.

[7] = test system: IL-1β; assay: IL-1β in gastrocnemius muscle by ELISA; type: in vivo, Balb/c mice (Mus musculus)
Protocol: as §3

[8] = test system: Bax/Bcl-xl; assay: Western blotting of Bax and Bcl-xl in EAC cells (Bax/Bcl-xl ratio); type: in vivo, Balb/c mice (Mus musculus)
Protocol: as §2, with “EAC cells were washed with PBS and lysed in RIPA buffer supplemented with 1% protease and 3% phosphatase inhibitors.” left out, “control.” for “control. Images were obtained with the ChemiDoc MP (Bio Rad) system.”

[9] = test system: C-reactive protein; assay: Serum C-reactive protein (Ultra Turbiquest Plus CRP kit); type: in vivo, Balb/c mice (Mus musculus); conditions: for Serum C-reactive protein levels: mice with EAC, 9 days, Control 1.63, Normal 0.07
Protocol: The determination of C-reactive protein (CRP) in serum was performed by the Ultra Turbiquest Plus® CRP kit, according to the manufacturer instructions.

[10] = test system: COX-2; assay: COX-2 expression in EAC cells by Western blotting; type: in vivo, Balb/c mice (Mus musculus); conditions: COX-2/actin in EAC cells
Protocol: as §2
The COX-2 expression in EAC cells was assessed by Western blotting as described in item 2.2.3. Antibodies to COX-2 were purchased from Cell Signaling (#4842)

[11] = test system: tumors injected into the peritoneal cavity; conditions: rats; cited from earlier work
[12] = serum HMB levels; cited from earlier work
[13] = EAC cells harvested after 9 days treatment

Q: For `COc1cccc2c1C(=O)c1c(O)c3c(c(O)c1C2=O)C[C@@](O)(C(=O)CO)C[C@@H]3O[C@H]1C[C@H](N)[C@H](O)[C@H](C)O1` [Doxo, doxorubicin], which Apoptotic cells [1, 13] is on record?
A: 4%

Q: And the “Necrosis (necrotic cells)” value [1, 13]?
A: 36%

Q: And the Viable cells [1, 13]?
A: 60%

Q: What about the “Percentage of death induced by each treatment” value ([1]; as restated in the discussion) of the same compound?
A: 36%

Q: And the “Inhibition of tumor growth” value ([2]; from waist circumference, in relation to the Control group, n=6)?
A: 42%

Q: What about the “Reduction of body weight variation in relation to the Control group” value ([2]; mice with EAC) of the same compound?
A: 39%

Q: And the “Reduction of volume of ascitic liquid in relation to the Control group” value ([2]; mice with EAC)?
A: 54%

Q: What about the “Increase of p53 expression in relation to the Control group” value [3] of the same compound?
A: 20%

Q: What about the Mean survival time [4] of the same compound?
A: 26 days

Q: What about the “Surviving animals at the end of the observation period” value ([4]; n=12, 30 days) of the same compound?
A: 3 animals

Q: And the “Average daily food intake” value [5]?
A: 2.22 ± 0.63 g/day

Q: And the “Attenuation of weight loss in relation to controls” value ([5]; EAC caused 11% body weight loss)?
A: 54%

Q: What about the “Brown adipose tissue mass” value [5] of the same compound?
A: 3.6 ± 1.7 mg/cm mouse length

Q: And the “Dry weight soleus muscle” value [5]?
A: 0.1 ± 0.01 mg/mm tibia length

Q: And the Mesenteric fat mass [5]?
A: 2.5 ± 0.6 mg/cm mouse length

Q: What about the Subcutaneous fat mass [5] of the same compound?
A: 2.2 ± 0.3 mg/cm mouse length

Q: And the “Wet weight gastrocnemius muscle” value [5]?
A: 11.7 ± 0.2 mg/mm tibia length

Q: And the “Wet weight soleus muscle” value [5]?
A: 0.7 ± 0.15 mg/mm tibia length

Q: What about the “Reduction of IL-6” value [6] of the same compound?
A: 43%

Q: What about the “Reduction of IL-1β content in relation to controls” value [7] of the same compound?
A: 6%

Q: And the “Increase of Bax/Bcl-xL ratio in relation to the Control” value [8]?
A: 38%

Q: What about the “Serum C-reactive protein levels” value [9] of the same compound?
A: 2.39 mg/L

Q: And the “Increase in C-reactive protein levels compared to controls” value ([9]; serum)?
A: 47%

Q: What does the source list for `CC(C)(O)CC(=O)O` [HMB, β-hydroxy-β-methylbutyrate]?
A: Reduction of COX-2 expression compared to controls [10]: 4%; Increase of p53 expression in relation to the Control group [3]: 10%; Mean survival time [4]: 13.5 days; Average daily food intake [5]: 2.81 ± 1.05 g/day; Brown adipose tissue mass [5]: 3.2 ± 0.3 mg/cm mouse length; Dry weight soleus muscle [5]: 0.1 ± 0.04 mg/mm tibia length; Mesenteric fat mass [5]: 3.0 ± 0.8 mg/cm mouse length; Subcutaneous fat mass [5]: 1.9 ± 1.1 mg/cm mouse length; Wet weight gastrocnemius muscle [5]: 8.9 ± 0.5 mg/mm tibia length; Wet weight soleus muscle [5]: 0.8 ± 0.2 mg/mm tibia length; Reduction of IL-6 [6]: 64%; Serum C-reactive protein levels [9]: 0.31 mg/L; Improved survival [11]: 42%

Q: With `CC(C)(O)CC(=O)O` [free acid form of HMB, β-hydroxy-β-methylbutyric acid] as the compound, how does the “Absorption compared with CaHMB” value [12] read?
A: more rapidly absorbed than CaHMB
